Laboratory results as given in patent US20260183411A1, “TARGETING SORTILIN” (priority 2024, published 2026).
Bridges are numbered along the chain shown (N, C = ends). Where no end group is shown, it is not given here. [ ]: non-standard residue; d: D form. conjugation handle = not defined here; tBuAla = CC(C)(C)C[C@H](N)C(=O)O; Tle = CC(C)(C)[C@H](N)C(=O)O; Nle = CCCC[C@H](N)C(=O)O

How the values were obtained:
housekeeping gene mRNA [1] = assay: Rat CNS delivery, intrathecal, 28-day (RT-qPCR); format: in vivo; conditions: IT, 900 μg siRNA
Description: SORT1 peptide 3 conjugate was prepared as described above. The SORT1 peptide 3 conjugate or a benchmark lipid were administered to rats intrathecally (IT), by injection into the spinal cord, for 28 days at 900 μg of siRNA. The delivery efficacy of the SORT1 peptide 3 conjugate was measured by measuring the amount of the housekeeping gene mRNA remaining in tissue samples at the end of the 28-day dosing regimen via RT-qPCR of samples from various parts of the rat CNS: lumbar spinal cord (LSC), cervical spinal cord (CSC), brainstem (BS), cerebellum (CB), somatosensory cortex (SSC), frontal cortex (FC), hippocampus (HC), thalamus (TH), liver, and heart. 28 day post-injection rats were sacrificed, and tissues collected (brain, spinal cord, heart, liver). Tissues were flash frozen and prepared for RT-qPCR detection of target housekeeping gene mRNA knockdown.
To characterize the amount of mRNA present in tissue samples from rats treated with SORT1 peptide 3 conjugates following the 28-day dosing regimen, control rats were injected with an equivalent volume of artificial cerebrospinal fluid (aCSF) as a comparative negative control.

housekeeping gene mRNA [2] = assay: Mouse CNS delivery, intrathecal, 7-day (RT-qPCR); format: in vivo; conditions: IT dosing
Description: These conjugates were administered to C57BL/6 mice intrathecally (IT), by injection into the spinal canal, for 7 days at 150 μg of siRNA. The delivery efficacy of the various peptide conjugates was measured by measuring the amount of the housekeeping gene mRNA remaining in tissue samples at the end of the 7-day dosing regimen via RT-qPCR of samples from various parts of the mouse CNS: lumbar spinal cord (LSC; FIG. 24A), brainstem (BS; FIG. 24B), cerebellum (CB; FIG. 24C), frontal cortex (FC; FIG. 24D), somatosensory cortex (SSC; FIG. 24E), hippocampus (HC; FIG. 24F), thalamus (TH;
FIG. 24G), liver (FIG. 24H), and heart (FIG. 24I). 7 days post-injection mice were sacrificed, and tissues collected (brain, spinal cord, heart, liver). Tissues were flash frozen and prepared for RT-qPCR detection of target housekeeping gene mRNA knockdown (quantified below in Table 19). Furthermore, histological studies were performed in the brain and cervical spinal cord. In situ hybridization using miRNAscope and a probe that binds the housekeeping gene siRNA was used to assess the localization of the SORT1 peptide conjugates in cross sections of the brain and cervical spinal cord.
To characterize the amount of mRNA present in tissue samples following 7 days from mice treated with SORT1 peptide conjugates, control mice were injected with an equivalent volume of artificial cerebrospinal fluid (aCSF) as a comparative negative control.

housekeeping gene mRNA [3] = assay: Mouse CNS delivery, intracerebroventricular, 14/60-day (RT-qPCR); format: in vivo; conditions: for ICV % housekeeping gene knockdown relative to aCSF: 14-day, ICV dosing
Description: The delivery of the SORT1 peptide conjugates was further tested over longer dosing regimens of 14 days and 60 days. […] The delivery of the siRNA-peptide-conjugated was measured at the end of the 14- or 60-day dosing regimen via RT-qPCR of samples from various parts of the mouse CNS: lumbar spinal cord (LSC; FIGS. 25A and 25B), brainstem (BS; FIGS. 25C and 25D), cerebellum (CB; FIGS. 25E and 25F), frontal cortex (FC; FIGS. 26A and 26B), somatosensory cortex (SSC; FIGS. 26C and 26D), hippocampus (HC; FIGS. 26E and 26F), thalamus (TH; FIGS. 27A and 27B), liver (FIGS. 27C and 27D), and heart (FIGS. 27E and 27F). 14- and 60-days post-injection mice were sacrificed, and tissues collected (brain, spinal cord, heart, liver). Tissues were flash frozen and prepared for RT-qPCR detection of target housekeeping gene mRNA knockdown (quantified below in Table 20).

rat SORT1 (76-752)-His = target: T1, rat SORT1 (76-752)-His (rat, UniProt O54861 76-752); assay: SPR (Biacore 8K), SORT1 on CM5 chip, unconjugated peptide with conjugation handles as analyte, 1:1 model
T1 construct: range 76-752; Amine-coupled to CM5 chip for SPR
T1 sequence (looked up): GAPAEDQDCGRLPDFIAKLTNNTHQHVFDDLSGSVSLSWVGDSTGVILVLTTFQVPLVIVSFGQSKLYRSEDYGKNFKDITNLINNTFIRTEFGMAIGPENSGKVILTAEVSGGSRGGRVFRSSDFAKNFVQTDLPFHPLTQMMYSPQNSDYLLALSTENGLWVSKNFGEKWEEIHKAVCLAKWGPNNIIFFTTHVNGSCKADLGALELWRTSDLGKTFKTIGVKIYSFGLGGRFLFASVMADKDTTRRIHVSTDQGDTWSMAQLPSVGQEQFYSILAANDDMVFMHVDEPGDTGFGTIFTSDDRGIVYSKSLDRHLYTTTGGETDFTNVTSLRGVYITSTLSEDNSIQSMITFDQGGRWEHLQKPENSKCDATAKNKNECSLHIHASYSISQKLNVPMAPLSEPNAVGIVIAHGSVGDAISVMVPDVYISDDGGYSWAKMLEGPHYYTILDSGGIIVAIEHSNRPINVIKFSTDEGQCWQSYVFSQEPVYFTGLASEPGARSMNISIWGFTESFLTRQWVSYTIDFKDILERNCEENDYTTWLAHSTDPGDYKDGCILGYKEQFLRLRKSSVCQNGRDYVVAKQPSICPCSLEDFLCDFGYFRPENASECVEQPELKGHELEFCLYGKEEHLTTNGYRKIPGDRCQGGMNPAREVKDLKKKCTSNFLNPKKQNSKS
Description: (§1) SPR analysis was performed on Series S CM5 chips (Cytiva) using a Biacore 8K instrument (Cytiva). Sensorgrams were double-referenced by subtracting the response on both a reference flow cell and a blank sample. Human SORT1 (78-755)-His (Acrobiosystems), human SORT1 (78-755)-His(GenScript), mouse SORT1 (76-753)-His (R&D Systems), rat SORT1 (76-752)-His (GenScript), and cyno SORT1 (76-753)-His (GenScript) were diluted to 20-60 μg/mL in 10 mM sodium acetate pH 4.5 buffer and immobilized onto Series S CM5 chips using amine coupling at a flow rate of 10 μL/min for 45-100 s.
(§2) Ten start-up cycles and a blank cycle preceded each analysis run. The runs were performed by sequential injections of analyte (0-20 nM, 3-fold serial dilutions) with a 90 s association and 900 s dissociation at a flow rate of 30 μL/min, followed by two regeneration cycles with 2 M MgCl2 for 90 s at a flow rate of 10 μL/min. […] Five start-up cycles and a blank cycle preceded each analysis run. The runs were performed by sequential injections of analyte (0-25 nM) with a 150 seconds (s) association and 300 s dissociation at a flow rate of 30 μL/min, followed by a regeneration with 2 M MgCl₂ for 200 s at a flow rate of 10 μL/min. The kinetic rate constants (kₐ and kd) and the equilibrium binding constant (Kd) were calculated using a 1:1 kinetic binding model on the Biacore Insight Evaluation Software (Cytiva).
(§3) SPR analysis was performed on Series S CM5 chips (Cytiva) using a Biacore 8K instrument (Cytiva). Sensorgrams were double-referenced by subtracting the response on both a reference flow cell and a blank sample. The SPR analysis was conducted using four different SORT1 species: Human SORT1, Mouse SORT1, Rat SORT1, and Cyno SORT1. The samples were prepared according to the general procedure described above herein. The kinetic rate constants (ka and […]) and the equilibrium binding constant (Kd) were calculated using a 1:1 kinetic binding model on the Biacore Insight Evaluation Software (Cytiva).

Human SORT1 (78-755)-His = target: T2, Human SORT1 (78-755)-His (human, UniProt Q99523 78-755); assay: as above
T2 construct: range 78-755; Amine-coupled to CM5 chip for SPR; Two suppliers are named (Acrobiosystems, GenScript)
T2 sequence (looked up): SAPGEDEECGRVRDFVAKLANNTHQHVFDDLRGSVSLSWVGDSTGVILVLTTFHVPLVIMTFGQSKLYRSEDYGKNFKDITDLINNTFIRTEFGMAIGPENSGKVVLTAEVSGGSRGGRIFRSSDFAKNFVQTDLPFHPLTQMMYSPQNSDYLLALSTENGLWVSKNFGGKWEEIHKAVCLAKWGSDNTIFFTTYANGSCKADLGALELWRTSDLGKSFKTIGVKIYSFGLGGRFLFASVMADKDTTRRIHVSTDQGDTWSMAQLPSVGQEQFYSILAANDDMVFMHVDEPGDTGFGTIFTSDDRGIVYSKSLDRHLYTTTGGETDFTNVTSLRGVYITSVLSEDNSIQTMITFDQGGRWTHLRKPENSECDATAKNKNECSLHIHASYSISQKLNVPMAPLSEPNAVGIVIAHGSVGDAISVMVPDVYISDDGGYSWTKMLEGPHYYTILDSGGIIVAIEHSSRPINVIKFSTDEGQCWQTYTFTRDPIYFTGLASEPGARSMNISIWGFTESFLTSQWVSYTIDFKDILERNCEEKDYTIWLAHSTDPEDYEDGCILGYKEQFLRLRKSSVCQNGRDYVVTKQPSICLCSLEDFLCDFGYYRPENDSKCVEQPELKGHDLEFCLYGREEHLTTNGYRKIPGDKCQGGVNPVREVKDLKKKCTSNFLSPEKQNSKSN
Description: as §1, §2, §3

cyno SORT1 (76-753)-His = target: T3, cyno SORT1 (76-753)-His (cyno, UniProt A0A2K5VHG2 74-751); assay: as above
T3 construct: range 76-753; Amine-coupled to CM5 chip for SPR
T3 sequence: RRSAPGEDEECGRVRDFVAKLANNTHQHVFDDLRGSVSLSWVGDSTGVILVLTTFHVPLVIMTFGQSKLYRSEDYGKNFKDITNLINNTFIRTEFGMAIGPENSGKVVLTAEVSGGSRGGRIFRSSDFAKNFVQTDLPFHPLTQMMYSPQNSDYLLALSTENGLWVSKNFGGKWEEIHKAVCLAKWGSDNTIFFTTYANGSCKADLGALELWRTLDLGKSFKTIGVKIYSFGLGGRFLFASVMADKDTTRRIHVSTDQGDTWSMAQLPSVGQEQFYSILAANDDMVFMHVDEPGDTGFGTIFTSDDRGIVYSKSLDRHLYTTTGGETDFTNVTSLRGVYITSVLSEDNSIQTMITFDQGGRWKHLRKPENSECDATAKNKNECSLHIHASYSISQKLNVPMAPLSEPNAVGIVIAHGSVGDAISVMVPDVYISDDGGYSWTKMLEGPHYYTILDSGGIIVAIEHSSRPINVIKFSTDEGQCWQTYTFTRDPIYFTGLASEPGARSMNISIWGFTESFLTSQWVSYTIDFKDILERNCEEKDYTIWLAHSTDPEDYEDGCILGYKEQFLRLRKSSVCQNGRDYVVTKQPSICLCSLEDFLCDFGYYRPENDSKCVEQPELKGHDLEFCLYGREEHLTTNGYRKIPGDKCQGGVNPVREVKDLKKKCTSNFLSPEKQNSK
Description: as §1, §2, §3

## SORT1 peptide 3 conjugate (RWCENKR[Nle]FTCRQ[Tle][tBuAla]; disulfide 3-11 (inferred); not fully specified (residue 6); printed as RWCENKR(Nle)FTCRQ(B13)(F02); also: conjugated via a linker to siRNA targeting a housekeeping gene mRNA, attachment presumably at the introduced Lys)
Housekeeping gene mRNA [1]
  housekeeping gene mRNA in the CNS relative to the aCSF control: significantly reduced
Housekeeping gene mRNA [2]; BS
  IT % housekeeping gene knockdown relative to aCSF: 77.0%
Housekeeping gene mRNA [2]; CB
  IT % housekeeping gene knockdown relative to aCSF: 53.6%
Housekeeping gene mRNA [2]; FC
  IT % housekeeping gene knockdown relative to aCSF: 50.1%
Housekeeping gene mRNA [2]; HC (deep brain)
  IT % housekeeping gene knockdown relative to aCSF: 66.6%
Housekeeping gene mRNA [2]; Heart
  IT % housekeeping gene knockdown relative to aCSF: 47.0%
Housekeeping gene mRNA [2]; LSC, 150 μg siRNA
  IT % housekeeping gene knockdown relative to aCSF: 94.7%
Housekeeping gene mRNA [2]; Liver
  IT % housekeeping gene knockdown relative to aCSF: 0.0%
Housekeeping gene mRNA [2]; SSC
  IT % housekeeping gene knockdown relative to aCSF: 61.4%
Housekeeping gene mRNA [2]; TH (deep brain)
  IT % housekeeping gene knockdown relative to aCSF: 33.4%
Housekeeping gene mRNA [3]; BS
  ICV % housekeeping gene knockdown relative to aCSF: 79.6%
Housekeeping gene mRNA [3]; CB
  ICV % housekeeping gene knockdown relative to aCSF: 66.6%
Housekeeping gene mRNA [3]; FC
  ICV % housekeeping gene knockdown relative to aCSF: 72.6%
Housekeeping gene mRNA [3]; HC (deep brain)
  ICV % housekeeping gene knockdown relative to aCSF: 72.1%
Housekeeping gene mRNA [3]; Heart
  ICV % housekeeping gene knockdown relative to aCSF: 7.9%
Housekeeping gene mRNA [3]; ICV, after 14 days
  knockdown of the target gene in peripheral tissues (heart and liver) relative to aCSF: No significant knockdown
Housekeeping gene mRNA [3]; LSC, 100 μg siRNA
  ICV % housekeeping gene knockdown relative to aCSF: 84.8%
Housekeeping gene mRNA [3]; Liver
  ICV % housekeeping gene knockdown relative to aCSF: 8.7%
Housekeeping gene mRNA [3]; SSC
  ICV % housekeeping gene knockdown relative to aCSF: 72.6%
Housekeeping gene mRNA [3]; TH (deep brain)
  ICV % housekeeping gene knockdown relative to aCSF: 76.2%

B1: SORT1 peptide 3 (w/conjugation handles), unconjugated (peptide)
peptide: RWCENK(conjugation handle)R[Nle]FTCRQ[Tle][tBuAla]
modifications: disulfide 3-11 (inferred); reading uncertain; also: K6 conjugation handle not given here, printed as RWCENKR(Nle)FTCRQ(B13)(F02)
Rat SORT1 (76-752)-His
  Kd: 1.16 nM
Human SORT1 (78-755)-His
  Kd: 0.168 nM
Cyno SORT1 (76-753)-His
  Kd: 0.191 nM
